In PubChem BioAssay (NCI):
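Step 1: Grow cells in 96-well plates. Step 2: Expose to compound for 48 hours at 5 concentrations. Step 3: Interpolate endpoints linearly; if unreached, use highest concentration. At the TGI there is no net growth.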

Experiments:
Test in all cases: growth of human tumour cells (NCI), 48 h
HOP-62 NSCLC = tested on: HOP-62 NSCLC
IGROV1 ovarian = tested on: IGROV1 ovarian
SK-OV-3 ovarian = tested on: SK-OV-3 ovarian
MOLT-4 leukemia = tested on: MOLT-4 leukemia
SF-268 CNS = tested on: SF-268 CNS
NCI-H23 lung = tested on: NCI-H23 lung
SF-539 CNS = tested on: SF-539 CNS
RXF 393 renal = tested on: RXF 393 renal
MALME-3M melanoma = tested on: MALME-3M melanoma
HCT-116 colon = tested on: HCT-116 colon
HCC-2998 colon = tested on: HCC-2998 colon
OVCAR-8 ovarian = tested on: OVCAR-8 ovarian
786-0 renal = tested on: 786-0 renal
UO-31 renal = tested on: UO-31 renal
ACHN renal = tested on: ACHN renal
COLO 205 colon = tested on: COLO 205 colon
SK-MEL-5 melanoma = tested on: SK-MEL-5 melanoma
NCI-H460 lung = tested on: NCI-H460 lung
DMS 273 small cell lung = tested on: DMS 273 small cell lung
OVCAR-5 ovarian = tested on: OVCAR-5 ovarian
DMS 114 small cell lung = tested on: DMS 114 small cell lung
HT29 colon = tested on: HT29 colon
RPMI-8226 leukemia = tested on: RPMI-8226 leukemia
KM12 colon = tested on: KM12 colon
OVCAR-3 ovarian = tested on: OVCAR-3 ovarian
HOP-18 NSCLC = tested on: HOP-18 NSCLC
SNB-75 CNS = tested on: SNB-75 CNS
M14 melanoma = tested on: M14 melanoma
SN12C renal = tested on: SN12C renal
SW-620 colon = tested on: SW-620 colon
KM20L2 colon = tested on: KM20L2 colon
RXF-631 renal = tested on: RXF-631 renal
M19-MEL melanoma = tested on: M19-MEL melanoma
NCI-H226 lung = tested on: NCI-H226 lung
HCT-15 colon = tested on: HCT-15 colon
HOP-92 NSCLC = tested on: HOP-92 NSCLC
SNB-78 CNS = tested on: SNB-78 CNS
LXFL 529 NSCLC = tested on: LXFL 529 NSCLC
SF-295 CNS = tested on: SF-295 CNS
EKVX NSCLC = tested on: EKVX NSCLC
U251 CNS = tested on: U251 CNS
DLD-1 colon = tested on: DLD-1 colon
UACC-62 melanoma = tested on: UACC-62 melanoma
OVCAR-4 ovarian = tested on: OVCAR-4 ovarian
SK-MEL-28 melanoma = tested on: SK-MEL-28 melanoma
LOX IMVI melanoma = tested on: LOX IMVI melanoma
SR leukemia = tested on: SR leukemia
SNB-19 CNS = tested on: SNB-19 CNS
CAKI-1 renal = tested on: CAKI-1 renal
A549 NSCLC = tested on: A549 NSCLC
SK-MEL-2 melanoma = tested on: SK-MEL-2 melanoma
HL-60(TB) leukemia = tested on: HL-60(TB) leukemia
TK-10 renal = tested on: TK-10 renal
K-562 leukemia = tested on: K-562 leukemia
A498 renal = tested on: A498 renal
NCI-H522 lung = tested on: NCI-H522 lung
UACC-257 melanoma = tested on: UACC-257 melanoma
CCRF-CEM leukemia = tested on: CCRF-CEM leukemia

Measured: TGI

Cn1cnc([N+](=O)[O-])c1Sc1nc2ccccc2s1
13.2 µM: MALME-3M melanoma | SR leukemia
18.7 µM: HCT-116 colon
21.5 µM: UO-31 renal
2.71 µM: DMS 273 small cell lung
4.91 µM: MOLT-4 leukemia
27.9 µM: OVCAR-5 ovarian
22.1 µM: NCI-H226 lung
15.1 µM: SW-620 colon
24.7 µM: 786-0 renal | LXFL 529 NSCLC
22 µM: HCC-2998 colon
21.1 µM: SK-MEL-28 melanoma
14.5 µM: COLO 205 colon | OVCAR-3 ovarian
28.5 µM: HT29 colon
25.2 µM: IGROV1 ovarian
14.3 µM: HOP-92 NSCLC
25.7 µM: UACC-62 melanoma
29 µM: M14 melanoma
17.8 µM: EKVX NSCLC
31 µM: LOX IMVI melanoma
22.8 µM: A549 NSCLC
86.1 µM: HOP-62 NSCLC
33 µM: SNB-78 CNS
29.3 µM: KM12 colon | SNB-75 CNS
0.902 µM: HOP-18 NSCLC
24.4 µM: U251 CNS
20.7 µM: SF-268 CNS
29.5 µM: SK-OV-3 ovarian
25.1 µM: SF-539 CNS
44.6 µM: SF-295 CNS
8.22 µM: RXF 393 renal
27.1 µM: SK-MEL-5 melanoma
17.6 µM: OVCAR-8 ovarian | SN12C renal
43.1 µM: RPMI-8226 leukemia
14.6 µM: HCT-15 colon
28.8 µM: ACHN renal
13.1 µM: OVCAR-4 ovarian
24.3 µM: NCI-H460 lung | M19-MEL melanoma
16.9 µM: RXF-631 renal
6.9 µM: CAKI-1 renal
23.5 µM: KM20L2 colon
18.1 µM: DLD-1 colon
23.9 µM: NCI-H23 lung
14.9 µM: DMS 114 small cell lung
29.4 µM: SNB-19 CNS

CSc1nc(NC2OC(COC(C)=O)C(OC(C)=O)C(OC(C)=O)C2OC(C)=O)c(N=CC=Nc2c(NC3OC(COC(C)=O)C(OC(C)=O)C(OC(C)=O)C3OC(C)=O)nc(SC)[nH]c2=O)c(=O)[nH]1 (stereo unspecified)
not listed: MOLT-4 leukemia | NCI-H226 lung | CAKI-1 renal | CCRF-CEM leukemia
> 100 µM: all other assays above

CCOc1ccc(NC(=O)/C(=C\c2ccc(C)cc2)C(C)=O)cc1
not listed: RXF 393 renal | NCI-H460 lung | KM12 colon
> 100 µM: all other assays above

N#CC(C#N)=C1NN=C(Cl)c2ccccc21
not listed: HCT-116 colon | NCI-H226 lung | SNB-78 CNS | SR leukemia | SNB-19 CNS | A498 renal
> 100 µM: all other assays above

O=C1C2c3[nH]c4ccccc4c3C3CCCCC3C2C(=O)N1c1ccccc1 (stereo unspecified)
95.2 µM: HOP-18 NSCLC
62.3 µM: RXF 393 renal
52.4 µM: SK-OV-3 ovarian
32.9 µM: SNB-75 CNS
not listed: HOP-62 NSCLC | HCT-116 colon | KM20L2 colon | HOP-92 NSCLC | CAKI-1 renal | SK-MEL-2 melanoma | NCI-H522 lung | UACC-257 melanoma
> 100 µM: all other assays above
